pIC50: −log10 of the molar value. Calls of active or inactive are those of the source. No cut-off for these calls is given here.
Assays:
CT26.WT [1] = assay: Antiproliferative activity against mouse CT26.WT cells assessed as reduction in cell proliferation incubated for 48 hrs by MTT assay; assay type: functional, cell-based
SGC-7901 = assay: Antiproliferative activity against human SGC-7901 cells assessed as reduction in cell proliferation incubated for 48 hrs by MTT assay; assay type: functional, cell-based; settings: SGC-7901, 48 h
[2] = biological target: T1, DNA topoisomerase 1 (Homo sapiens) (UniProt P11387); assay: Inhibition of human topoisomerase I assessed as DNA unwinding using DNA pBR322 as substrate at 2 uM incubated for 30 mins by ethidium bromide staining based agarose gel electrophoresis
T1 sequence (whole entry): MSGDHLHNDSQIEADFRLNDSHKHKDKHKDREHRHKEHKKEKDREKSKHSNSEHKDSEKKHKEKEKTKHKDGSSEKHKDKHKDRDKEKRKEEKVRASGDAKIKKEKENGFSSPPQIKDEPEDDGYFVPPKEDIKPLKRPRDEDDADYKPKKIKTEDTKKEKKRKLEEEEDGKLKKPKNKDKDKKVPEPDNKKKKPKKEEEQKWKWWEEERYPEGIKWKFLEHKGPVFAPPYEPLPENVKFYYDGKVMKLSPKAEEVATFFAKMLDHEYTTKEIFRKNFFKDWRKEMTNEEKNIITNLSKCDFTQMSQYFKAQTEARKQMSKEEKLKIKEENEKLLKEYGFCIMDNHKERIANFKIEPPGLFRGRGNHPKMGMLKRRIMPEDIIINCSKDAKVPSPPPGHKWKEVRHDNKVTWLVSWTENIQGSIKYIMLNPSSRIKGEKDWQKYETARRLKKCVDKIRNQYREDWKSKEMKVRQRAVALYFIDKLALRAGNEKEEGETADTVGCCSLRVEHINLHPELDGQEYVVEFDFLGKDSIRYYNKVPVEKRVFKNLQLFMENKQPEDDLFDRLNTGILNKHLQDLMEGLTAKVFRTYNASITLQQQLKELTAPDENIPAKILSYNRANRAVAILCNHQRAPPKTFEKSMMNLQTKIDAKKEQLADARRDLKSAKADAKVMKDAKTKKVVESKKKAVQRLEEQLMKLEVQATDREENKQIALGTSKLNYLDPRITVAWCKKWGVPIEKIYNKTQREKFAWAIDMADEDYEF

RKO [3] = assay: Antiproliferative activity against human RKO cells assessed as clone formation at 0.04 to 3.3 uM incubated for 4 days by crystal violet staining based analysis; assay type: functional, cell-based; settings: dose 0.04-3.3 µM, time 4.0 day
RKO [4] = assay: Effect on cell morphology in human RKO cells assessed as appearance of smaller cells at 10 uM incubated for 48 hrs by giemsa staining based microscopic analysis; assay type: functional
RKO [5] = assay: Effect on cell morphology in human RKO cells assessed as appearance of round cells at 10 uM incubated for 48 hrs by giemsa staining based microscopic analysis; assay type: functional
HGC-27 [6] = assay: Induction of pro-apoptosis in human HGC-27 assessed as DNA breakdown by analyzing DNA ladder at 1.1 to 10 uM for 36 hrs by ethidium bromide staining based agarose gel electrophoresis; assay type: functional, cell-based; settings: dose 1.1-10 µM
RKO [7] = assay: Induction of apoptosis in human RKO cells assessed as increase in caspase-3 activity at 10 uM incubated for 36 hrs by flow cytometry (Rvb= 1.08%); assay type: functional
HGC-27 [8] = assay: Induction of apoptosis in human HGC-27 cells assessed as increase in caspase-3 activity at 1.1 to 10 uM incubated for 36 hrs by flow cytometry; assay type: functional, cell-based; settings: dose 1.1-10 µM, DDE = dose-dependent effect
RKO [9] = assay: Induction of mitochondrial membrane loss in human RKO at 1.1 to 10 uM and measured after 36 hrs by TMRE dye based flow cytometry; assay type: functional, cell-based; settings: dose 1.1-10 µM, DDE = dose-dependent effect
HGC-27 [10] = assay: Induction of mitochondrial membrane loss in human HGC-27 at 1.1 to 10 uM and measured after 36 hrs by TMRE dye based flow cytometry; assay type: functional, cell-based; settings: dose 1.1-10 µM, DDE = dose-dependent effect
RKO [11] = assay: Induction of apoptosis in human RKO cells assessed as increase in cleaved caspase-9 expression at 1.1 to 10 uM incubated for 24 hrs by western blot assay; assay type: functional, cell-based; settings: dose 1.1-10 µM
HGC-27 [12] = assay: Induction of apoptosis in human HGC-27 cells assessed as increase in cytochrome C level at 1.1 to 10 uM incubated for 24 hrs by western blot assay; assay type: functional, cell-based; settings: dose 1.1-10 µM
RKO [13] = assay: Antiproliferative activity against human RKO cells assessed as cell viability at <= 0.41 uM for 48 hrs by MTT assay; assay type: functional; settings: up to 0.41 µM
RKO [14] = assay: Anti-metastasis activity against human RKO cells assessed as reduction in MMP-9 expression level at 3.3 to 10 uM for 24 hrs by western blot analysis; assay type: functional, cell-based; settings: dose 3.3-10 µM
HGC-27 [15] = assay: Anti-metastasis activity against human HGC-27 cells assessed as reduction in MMP-9 expression level at 3.3 to 10 uM for 24 hrs by western blot analysis; assay type: functional, cell-based; settings: dose 3.3-10 µM
RAW264.7 [16] = assay: Inhibition of LPS induced NO production in mouse RAW264.7 cells at 6.6 uM incubated for 1 hrs followed by LPS stimulation and measured after 24 hrs by Griess reagent based assay; assay type: functional, cell-based; settings: time 25.0 hrs
RAW264.7 [17] = assay: Antiinflammatory activity in mouse RAW264.7 cells assessed as reduction in LPS-induced NF-kappaB nuclear translocation at 6.6 uM incubated for 1 hrs followed by LPS stimulation for 1 hrs by DAPI staining based immunofluorescence assay; assay type: functional, cell-based; settings: time 2.0 hrs
[18] = Acute toxicity in Kunming mouse assessed as lethal dose at 100 mg/kg,ip and measured upto 14 days; assay type: organism-based; settings: in vivo, time < 14 day
[19] = Tmax in Sprague-Dawley rat at 100 mg/kg, ip and measured upto 8 hrs by LC-MS/MS analysis; assay type: ADME, organism-based; settings: in vivo
[20] = Cmax in Sprague-Dawley rat at 100 mg/kg, ip and measured upto 8 hrs by LC-MS/MS analysis; assay type: ADME, organism-based; design: time < 8 hrs, dose 100 mg/kg, route ip; settings: in vivo
CT26.WT [21] = assay: Anti-tumor activity against mouse CT26.WT xenografted in BALB/c mouse assessed as decrease in tumor size at 100 mg/kg, ip twice daily and measured upto 14 days relative to control; assay type: functional, organism-based; settings: time <= 14.0 day
[22] = Toxicity in BALB/c mouse xenografted with mouse CT26.WT assessed as pathological changes in heart at 100 mg/kg, ip twice daily and measured after 14 days by hematoxylin and eosin staining based microscopic analysis; assay type: organism-based; settings: in vivo, 336 h, time 14 day
[23] = Toxicity in BALB/c mouse xenografted with mouse CT26.WT assessed as pathological changes in liver at 100 mg/kg, ip twice daily and measured after 14 days by hematoxylin and eosin staining based microscopic analysis; assay type: organism-based; settings: in vivo, 336 h, time 14 day
[24] = Toxicity in BALB/c mouse xenografted with mouse CT26.WT assessed as pathological changes in lung at 100 mg/kg, ip twice daily and measured after 14 days by hematoxylin and eosin staining based microscopic analysis; assay type: organism-based; settings: in vivo, 336 h, time 14 day
CT26.WT [25] = assay: Anti-tumor activity against mouse CT26.WT xenografted in BALB/c mouse assessed as decrease in COX-2 expression level in tumor tissue at 100 mg/kg, ip twice daily and measured after 14 days by immunohistochemical analysis; assay type: functional, organism-based; settings: time 14.0 day
RKO [26] = assay: Induction of apoptosis in human RKO cells at 1.1 to 10 uM for 24 hrs by Annexin V-FITC/PI staining based flow cytometry; assay type: functional, cell-based; settings: dose 1.1-10 µM

Cc1c(Cl)cccc1Nc1ccc(F)cc1C(=O)NCc1ccc(O)c(O)c1
pIC50 (CT26.WT [1]): 5.52
pIC50 (SGC-7901): 4.83
inhibition [2]: 45.4%
Activity (RKO [3]): Active
Activity (RKO [4]): Active
Activity (RKO [5]): Active
Activity (HGC-27 [6]): Active
Activity (RKO [7]): 55.94%
Activity (HGC-27 [8]): Dde
Activity (RKO [9]): Dde
Activity (HGC-27 [10]): Dde
Activity (RKO [11]): Active
Activity (HGC-27 [12]): Active
Activity (RKO [13]): >80%
Activity (RKO [14]): Active
Activity (HGC-27 [15]): Active
inhibition (RAW264.7 [16]): Active
Activity (RAW264.7 [17]): Active
LD50 at 336 h [18]: > 100 mg/kg
Tmax [19]: 40.2 min
Cmax [20]: 20200 ng/mL
Activity (CT26.WT [21]): Active
Activity [22]: Non-Toxic
Activity [23]: Non-Toxic
Activity [24]: Non-Toxic
Activity (CT26.WT [25]): Active
Activity (RKO [26]): Active
